Results published in patent US4820715A, “Anti-emetic quinuclidinyl benzamides” (Bristol-Myers Company, priority 1987, dated 1989).
Counter-ions that a name gives are not always drawn. Like-named read-outs stand apart in the source and are kept apart here.

Assays:
[1] = test system: Apomorphine-Induced Emesis; experiment: Antagonism of Apomorphine-Induced Emesis in Dogs; assay type: in vivo, beagle dogs; conditions: Canis lupus familiaris, sc, read-out: Antagonism of Apomorphine-Induced Emesis in the Dog ED50
Protocol: Unfasted beagle dogs of both sexes were used as test subjects. Test compounds and apomorphine were each administered subcutaneously as aqueous solutions, with the test compound being administered 30 minutes prior to the administration of the apormorphine.
Apomorphine was administered at a dose of 0.3 mg/kg. […] All tests were run in at least two dogs.

[2] = test system: Cisplatin-Induced Emesis; experiment: Antagonism of Cisplatin-Induced Emesis in the Ferret; assay type: in vivo, Fitch ferrets; conditions: Mustela putorius, iv, 4 h, read-out: Antagonism of Cisplatin-Induced Emesis in the Ferret, % Protection
From the text: The ventral and dorsal area of the neck is shaved and a 3 cm incision is made. The left jugular vein is exposed and ligated with a silk suture at the cephalic end. The indwelling catheter is constructed of Silastic tubing 18 cm in length (0.020 inch I.D.×0.037 inch O.D.) with a 2 cm polyethylene sleeve (0.045 inch I.D.×0.062 inch O.D.) filled with heparin (1000 units/ml) and sealed at the exposed end with a 23 gauge×1 inch needle crimped at both ends. A small cut is made in the jugular and the catheter inserted, allowing the free end to be delivered through a 13 gauge×5 cm trochar under the skin and attached to the nape of the neck with a silk suture. The ferrets are housed in individual cages and allowed 2-4 days recovery before testing. On the test day, the test compounds were administered i.v. […] The cisplatin solution was prepared by adding 70° C. physiological saline, stirring and sonicating until dissolved. The resulting solution (4 mg/ml) was maintained at 40° C. and administered i.v. ([…]) via the catheter. Following administration of cisplatin, the ferrets were observed continuously for four hours and emetic episodes recorded. Two or more emetic episodes within a one-minutes period was considered as a single episode. The ferrets were euthanized with T-61 i.v. at the termination of the experiment, and proper placement of the catheter was verified.

[3] = test system: field-stimulated guinea pig ileum; experiment: Gastrokinetic Activity: contraction of field-stimulated guinea pig ileum preparations; set-up: species or system guinea pig (Hartley); conditions: Cavia porcellus
Protocol: This activity is considered to be correlated with gastrokinetic (prokinetic) activity in vivo, i.e. enhancement of gastric motility and gastric emptying.
Normal, male guinea pigs (Hartley; Charles River) weighing […] are sacrificed by cervical dislocation. The terminal portion of the ileum was removed after discarding a 10 cm segment nearest to the ileocecal junction. The strips, 3-4 cm in length, were mounted in a 20 ml organ bath containing Krebs physiological buffer solution. The buffer was bubbled with 95% O2 -5% CO2 and kept at 37° C. The resting tension was adjusted to 1.0 g, and the tissues were equilibrated without stimulation for 15 minutes. For electrical stimulation, a platinum wire (cathode) was threaded up through the lumen and another platinum wire (anode) was attached to the glass rod that suspended the muscle. Tissues were stimulated coaxially at 1.5 times the voltage necessary to produce maximum twitch height, with single pulses, 0.5 msec in duration, delivered once every 10 seconds. After the 15 minute equilibration period (without stimulation), the stimulator (Grass S88 Stimulator) was turned on and the tissues were allowed to stabilize for approximately 1 hour, or until the twitch height remained constant, with washes every 20 minutes.

[4] = s.c. 30 minutes prior to apomorphine 0.3 mg/kg, dog

| Structure (SMILES) | ED50 [1, 4] | inhibition in vivo at 3 mg/kg ([2]; 3 mg/kg, i.v. × 2) | further results |
| --- | --- | --- | --- |
| CCN(CC)CCNC(=O)c1cc(Cl)c(N)cc1OC(C)C(C)O (mixture of isomers) [Example 41, 4-Amino-5-chloro-N-[2-(diethylamino)ethyl]-2-[(2-hydroxy)but-3-yl]oxybenzamide (mixture of threo and erythro isomers)] | > 3 mg/kg | 81% | – |
| O=c1[nH]c2ccccc2n1CCCN1CCC(n2c(=O)[nH]c3cc(Cl)ccc32)CC1 [Domperidone, reference compound] | – | – | ED50 [1]: 0.2 mg/kg; inhibition in vivo at 3 mg/kg [2]: 50% |
| CCN(CC)CCNC(=O)c1cc(Cl)c(N)cc1OCCOC [Example 1, 4-Amino-5-chloro-N-[2-(diethylamino)ethyl]-2-(2-methoxyethoxy)benzamide] | > 3 mg/kg | 76% | – |
| CCN(CC)CCNC(=O)c1cc(Cl)c(N)cc1OCCO [Example 2, 4-Amino-5-chloro-N-[2-(diethylamino)ethyl]-2-(2-hydroxyethoxy)benzamide] | > 3 mg/kg | 68% | – |
| CCN(CC)CCNC(=O)c1cc(Cl)c(N)cc1OCC(OC)OC [Example 3, 4-Amino-5-chloro-N-[2-(diethylamino)ethyl]-2-(2,2-dimethoxyethoxy)benzamide] | > 3 mg/kg | 82% | – |
| CCN(CC)CCNC(=O)c1cc(Cl)c(N)cc1OCC(C)=O [Example 5, 4-Amino-5-chloro-N-[2-(diethylamino)ethyl]-2-(2-propanon-1-yl)oxybenzamide] | > 3 mg/kg | 90% | – |
| CCN(CC)CCNC(=O)c1cc(Cl)c(N)cc1OCC(=O)c1ccccc1 [Example 6, 4-Amino-2-(2-phenyl-2-oxoethoxy)-5-chloro-N-[2-(diethylamino)ethyl]benzamid] | > 3 mg/kg | 100% | – |
| CCN(CC)CCNC(=O)c1cc(Cl)c(N)cc1OC(C)C(C)=O (stereo not drawn) [Example 7, 4-Amino-2-(butan-2-on-3-yl)oxy-5-chloro-N-[2-(diethylamino)ethyl]benzamide] | > 3 mg/kg | 95% | – |
| CCN(CC)CCNC(=O)c1cc(Cl)c(N)cc1OC1CCCCC1=O (stereo not drawn) [Example 9, 4-Amino-5-chloro-2-(cyclohexanon-2-yl)oxy-N-[2-(diethylamino)ethyl]benzamide] | > 3 mg/kg | 100% | – |
| CCN(CC)CCNC(=O)c1cc(Cl)c(N)cc1OCC(C)=NO [Example 10, 4-Amino-5-chloro-N-[2-(diethylamino)ethyl]-2-[(2-hydroxyimino)propan-1-yl]oxybenzamide] | > 3 mg/kg | 100% | – |
| CCN(CC)CCNC(=O)c1cc(Cl)c(N)cc1OCC(C)O (stereo not drawn) [Example 12, 4-Amino-5-chloro-N-[2-(diethylamino)ethyl]-2-(2-hydroxypropan-1-yl)oxybenzamide] | > 3 mg/kg | 86% | – |
| CCN(CC)CCNC(=O)c1cc(Cl)c(N)cc1OCC#N [Example 13, 4-Amino-5-chloro-2-cyanomethoxy-N-[2-(diethylamino)ethyl]benzamide] | > 3 mg/kg | 90% | – |
| CCN(CC)CCNC(=O)c1cc(Cl)c(N)cc1OCC(=O)OC [Example 15, 4-Amino-5-chloro-N-[2-(diethylamino)ethyl]-2-(2-methoxy-2-oxoethoxy)benzamide] | > 3 mg/kg | 30% | – |
| CN(C)CCNC(=O)c1cc(Cl)c(N)cc1O [Example 17, 4-Amino-5-chloro-N-[2-(dimethylamino)ethyl]-2-hydroxybenzamide] | – | – | activation at 10 µM ([3]; at 10 μM, read-out: Average % Maximum Increase): 41%; EC30 ([3]; effective concentration30, read-out: EC30 (95% C.L.)): 5.4 µM; EC50 ([3]; effective concentration50, read-out: EC50 (95% C.L.)): 15 µM; minimal effective concentration ([3]; read-out: Minimum Effective Concentration): 0.3 µM |
| CCN(CC)CCNC(=O)c1cc(Cl)c(N)cc1OCC1COC(C)(C)O1 (stereo not drawn) [Example 18, 4-Amino-5-chloro-N-[2-(diethylamino)ethyl]-2-(2,2-dimethyl-1,3-dioxalan-4-yl)methoxybenzamide] | > 3 mg/kg | 72% | – |
| C=CCC(Oc1cc(N)c(Cl)cc1C(=O)NCCN(CC)CC)C(C)=O (stereo not drawn) [Example 24, 4-Amino-5-chloro-N-[2-(diethylamino)ethyl]-2-(5-hexan-2-on-3-yl)oxybenzamide hydrochloride] | > 3 mg/kg | 67% | – |
| CCC(Oc1cc(N)c(Cl)cc1C(=O)NCCN(CC)CC)C(C)=O (stereo not drawn) [Example 25, 4-Amino-5-chloro-N-[2-(diethylamino)ethyl]-2-(pentan-2-on-3-yl)oxybenzamide] | > 3 mg/kg | – | inhibition in vivo at 1 mg/kg ([2]; i.v. × 2): 58% |
| CCC(=O)COc1cc(N)c(Cl)cc1C(=O)NCCN(CC)CC [Example 26, 4-Amino-2-(2-butanon-1-yl)oxy-5-chloro-N-[2-(diethylamino)-ethyl]benzamide] | > 3 mg/kg | 90% | – |
| CCCC(=O)COc1cc(N)c(Cl)cc1C(=O)NCCN(CC)CC [Example 27, 4-Amino-5-chloro-N-[2-(diethylamino)ethyl]-2-(pentan-2-on-1-yl)oxybenzamide] | > 3 mg/kg | – | inhibition in vivo at 1 mg/kg ([2]; i.v. × 2): 90% |
| CCC(=O)C(C)Oc1cc(N)c(Cl)cc1C(=O)NCCN(CC)CC.Cl (stereo not drawn) [Example 28, 4-Amino-5-chloro-2-(pentan-3-on-2-yl)oxy-N-(2-diethylaminoethyl)benzamide hydrochloride] | > 3 mg/kg | – | inhibition in vivo at 1 mg/kg ([2]; i.v. × 2): 82% |
| CCN(CC)CCNC(=O)c1cc(Cl)c(N)cc1OCC(=O)C(C)C [Example 29, 4-Amino-5-chloro-N-[2-(diethylamino)ethyl]-2-[(3-methyl)-butan-2-on-1-yl]oxybenzamide] | > 3 mg/kg | – | inhibition in vivo at 1 mg/kg ([2]; i.v. × 2): 44% |
| CCN(CC)CCNC(=O)c1cc(Cl)c(N)cc1OCC(=O)Cc1ccccc1 [Example 30, 4-Amino-5-chloro-N-[2-(diethylamino)ethyl]-2-(3-phenyl-2-propanon-1-yl)oxybenzamide] | > 3 mg/kg | 100% | – |
| CCN(CC)CCNC(=O)c1cc(Cl)c(N)cc1OC(C)(C)C(C)=O.O [Example 31, 4-Amino-5-chloro-N-[2-(diethylamino)ethyl]-2-[(3-methyl)butan-2-on-3-yl]oxybenzamide monohydrate] | > 3 mg/kg | – | inhibition in vivo at 1 mg/kg ([2]; i.v. × 2): 67% |
| CCN(CC)CCNC(=O)c1cc(Cl)c(N)cc1OCC(O)Cc1ccccc1 (stereo not drawn) [Example 33, 4-Amino-5-chloro-N-[2-(diethylamino)ethyl]-2-[2-(2-hydroxy-3-phenylpropyl)]oxybenzamide] | > 3 mg/kg | – | inhibition in vivo at 1 mg/kg ([2]; i.v. × 2): 54% |
| CCN(CC)CCNC(=O)c1cc(Cl)c(N)cc1OCC1OCCO1 [Example 43] | > 3 mg/kg | 67% | – |
| CCN(CC)CCNC(=O)c1cc(Cl)c(N)cc1OCc1ccccn1 [Example 45, 4-Amino-5-chloro-N-[2-(diethylamino)ethyl]-2-(2-pyridinomethyl)oxybenzamide] | > 3 mg/kg | 80% | – |
| CCN(CC)CCNC(=O)c1cc(Cl)c(N)cc1OCCOCCOC [Example 46, 4-Amino-5-chloro-N-[2-(diethylamino)ethyl]-2-(2-methoxyethoxyethyl)oxybenzamide] | > 3 mg/kg | 76% | – |
| CCN(CC)CCNC(=O)c1cc(Cl)c(N)cc1OCC(=O)c1cccs1 [Example 52, 4-Amino-5-chloro-N-[2-(diethylamino)ethyl]-2-(2-thienoylmethoxy)benzamide] | > 3 mg/kg | 95% | – |
| CCN(CC)CCNC(=O)c1cc(Cl)c(N)cc1OCCC1(C)OCCO1 [Example 54] | > 3 mg/kg | 81% | – |
